Experiments:
Assay in all cases: KinomeScan
Format in all cases: binding
Details in all cases: 1 μM
JNK3 = target: T1, JNK3 (Homo sapiens, UniProt P53779)
T1 construct: purchased DiscoverX (KINOMEscan)

[1] = target: T2, ABL1(H396P)-nonphosphorylated (Homo sapiens, UniProt P00519, H396P)
T2 construct: purchased DiscoverX (KINOMEscan)

MUSK = target: T3, MUSK (Homo sapiens, UniProt O15146)
T3 construct: purchased DiscoverX (KINOMEscan)

ADCK4 = target: T4, ADCK4 (Homo sapiens, UniProt Q96D53)
T4 construct: purchased DiscoverX (KINOMEscan)

LOK = target: T5, LOK (Homo sapiens, UniProt O94804)
T5 construct: purchased DiscoverX (KINOMEscan)

CDKL3 = target: T6, CDKL3 (Homo sapiens, UniProt Q8IVW4)
T6 construct: purchased DiscoverX (KINOMEscan)

LZK = target: T7, LZK (Homo sapiens, UniProt O43283)
T7 construct: purchased DiscoverX (KINOMEscan)

CDKL1 = target: T8, CDKL1 (Homo sapiens, UniProt Q00532)
T8 construct: purchased DiscoverX (KINOMEscan)

INSR = target: T9, INSR (Homo sapiens, UniProt P06213)
T9 construct: purchased DiscoverX (KINOMEscan)

FLT3(D835Y) = target: T10, FLT3(D835Y) (Homo sapiens, UniProt P36888, D835Y)
T10 construct: purchased DiscoverX (KINOMEscan)

FGFR3(G697C) = target: T11, FGFR3(G697C) (Homo sapiens, UniProt P22607, G697C)
T11 construct: purchased DiscoverX (KINOMEscan)

CDK5 = target: T12, CDK5 (Homo sapiens, UniProt Q00535)
T12 construct: purchased DiscoverX (KINOMEscan)

FER = target: T13, FER (Homo sapiens, UniProt P16591)
T13 construct: purchased DiscoverX (KINOMEscan)

[2] = target: T14, ABL1(T315I)-nonphosphorylated (Homo sapiens, UniProt P00519, T315I)
T14 construct: purchased DiscoverX (KINOMEscan)

TXK = target: T15, TXK (Homo sapiens, UniProt P42681)
T15 construct: purchased DiscoverX (KINOMEscan)

ERK3 = target: T16, ERK3 (Homo sapiens, UniProt Q16659)
T16 construct: purchased DiscoverX (KINOMEscan)

CDKL5 = target: T17, CDKL5 (Homo sapiens, UniProt O76039)
T17 construct: purchased DiscoverX (KINOMEscan)

[3] = target: T18, EGFR(L747-S752del, P753S) (Homo sapiens, UniProt P00533, DEL747-752/P753S)
T18 construct: purchased DiscoverX (KINOMEscan)

CDKL2 = target: T19, CDKL2 (Homo sapiens, UniProt Q92772)
T19 construct: purchased DiscoverX (KINOMEscan)

EPHA6 = target: T20, EPHA6 (Homo sapiens, UniProt Q9UF33)
T20 construct: purchased DiscoverX (KINOMEscan)

CDC2L5 = target: T21, CDC2L5 (Homo sapiens, UniProt Q14004)
T21 construct: purchased DiscoverX (KINOMEscan)

LATS1 = target: T22, LATS1 (Homo sapiens, UniProt O95835)
T22 construct: purchased DiscoverX (KINOMEscan)

EPHA4 = target: T23, EPHA4 (Homo sapiens, UniProt P54764)
T23 construct: purchased DiscoverX (KINOMEscan)

CAMK1G = target: T24, CAMK1G (Homo sapiens, UniProt Q96NX5)
T24 construct: purchased DiscoverX (KINOMEscan)

TRKA = target: T25, TRKA (Homo sapiens, UniProt P04629)
T25 construct: purchased DiscoverX (KINOMEscan)

CDK9 = target: T26, CDK9 (Homo sapiens, UniProt P50750)
T26 construct: purchased DiscoverX (KINOMEscan)

CHEK1 = target: T27, CHEK1 (Homo sapiens, UniProt O14757)
T27 construct: purchased DiscoverX (KINOMEscan)

MAP3K4 = target: T28, MAP3K4 (Homo sapiens, UniProt Q9Y6R4)
T28 construct: purchased DiscoverX (KINOMEscan)

ICK = target: T29, ICK (Homo sapiens, UniProt Q9UPZ9)
T29 construct: purchased DiscoverX (KINOMEscan)

[4] = target: T30, ABL1(H396P)-phosphorylated (Homo sapiens, UniProt P00519, H396P)
T30 construct: purchased DiscoverX (KINOMEscan)

DRAK1 = target: T31, DRAK1 (Homo sapiens, UniProt Q9UEE5)
T31 construct: purchased DiscoverX (KINOMEscan)

YES = target: T32, YES (Homo sapiens, UniProt P07947)
T32 construct: purchased DiscoverX (KINOMEscan)

MAPKAPK5 = target: T33, MAPKAPK5 (Homo sapiens, UniProt Q8IW41)
T33 construct: purchased DiscoverX (KINOMEscan)

EPHB2 = target: T34, EPHB2 (Homo sapiens, UniProt P29323)
T34 construct: purchased DiscoverX (KINOMEscan)

CSNK1A1L = target: T35, CSNK1A1L (Homo sapiens, UniProt Q8N752)
T35 construct: purchased DiscoverX (KINOMEscan)

TSSK1B = target: T36, TSSK1B (Homo sapiens, UniProt Q9BXA7)
T36 construct: purchased DiscoverX (KINOMEscan)

WEE1 = target: T37, WEE1 (Homo sapiens, UniProt P30291)
T37 construct: purchased DiscoverX (KINOMEscan)

T19 sequence (Q92772 whole entry): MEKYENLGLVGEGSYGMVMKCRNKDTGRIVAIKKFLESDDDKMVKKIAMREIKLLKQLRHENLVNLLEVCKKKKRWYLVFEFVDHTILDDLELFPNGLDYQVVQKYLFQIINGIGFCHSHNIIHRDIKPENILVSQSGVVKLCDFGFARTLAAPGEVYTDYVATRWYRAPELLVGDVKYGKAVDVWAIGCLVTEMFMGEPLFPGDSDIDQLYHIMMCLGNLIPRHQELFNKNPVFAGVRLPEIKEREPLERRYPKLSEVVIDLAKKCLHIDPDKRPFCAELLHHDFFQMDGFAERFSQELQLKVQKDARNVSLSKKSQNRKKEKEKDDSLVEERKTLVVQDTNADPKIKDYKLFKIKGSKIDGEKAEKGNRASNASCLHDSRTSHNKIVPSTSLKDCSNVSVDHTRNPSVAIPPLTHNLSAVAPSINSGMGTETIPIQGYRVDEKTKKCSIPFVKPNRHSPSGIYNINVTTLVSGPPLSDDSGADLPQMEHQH
T6 sequence (Q8IVW4 whole entry): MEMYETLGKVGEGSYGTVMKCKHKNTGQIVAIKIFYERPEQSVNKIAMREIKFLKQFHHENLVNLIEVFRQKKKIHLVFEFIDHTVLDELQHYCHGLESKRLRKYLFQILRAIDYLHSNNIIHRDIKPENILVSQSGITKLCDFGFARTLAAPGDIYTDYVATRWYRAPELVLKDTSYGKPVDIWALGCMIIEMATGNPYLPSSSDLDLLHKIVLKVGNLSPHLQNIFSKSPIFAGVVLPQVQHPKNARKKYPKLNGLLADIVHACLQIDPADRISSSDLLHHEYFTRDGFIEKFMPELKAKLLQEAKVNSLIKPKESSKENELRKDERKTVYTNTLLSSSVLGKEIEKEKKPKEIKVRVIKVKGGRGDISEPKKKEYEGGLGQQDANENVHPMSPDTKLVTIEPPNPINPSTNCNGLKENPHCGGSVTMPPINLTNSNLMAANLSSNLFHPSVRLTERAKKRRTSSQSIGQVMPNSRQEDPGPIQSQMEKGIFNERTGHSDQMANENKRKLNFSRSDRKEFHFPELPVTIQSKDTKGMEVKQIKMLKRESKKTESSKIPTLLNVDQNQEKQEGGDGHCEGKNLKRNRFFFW
T20 sequence (Q9UF33 23-1036): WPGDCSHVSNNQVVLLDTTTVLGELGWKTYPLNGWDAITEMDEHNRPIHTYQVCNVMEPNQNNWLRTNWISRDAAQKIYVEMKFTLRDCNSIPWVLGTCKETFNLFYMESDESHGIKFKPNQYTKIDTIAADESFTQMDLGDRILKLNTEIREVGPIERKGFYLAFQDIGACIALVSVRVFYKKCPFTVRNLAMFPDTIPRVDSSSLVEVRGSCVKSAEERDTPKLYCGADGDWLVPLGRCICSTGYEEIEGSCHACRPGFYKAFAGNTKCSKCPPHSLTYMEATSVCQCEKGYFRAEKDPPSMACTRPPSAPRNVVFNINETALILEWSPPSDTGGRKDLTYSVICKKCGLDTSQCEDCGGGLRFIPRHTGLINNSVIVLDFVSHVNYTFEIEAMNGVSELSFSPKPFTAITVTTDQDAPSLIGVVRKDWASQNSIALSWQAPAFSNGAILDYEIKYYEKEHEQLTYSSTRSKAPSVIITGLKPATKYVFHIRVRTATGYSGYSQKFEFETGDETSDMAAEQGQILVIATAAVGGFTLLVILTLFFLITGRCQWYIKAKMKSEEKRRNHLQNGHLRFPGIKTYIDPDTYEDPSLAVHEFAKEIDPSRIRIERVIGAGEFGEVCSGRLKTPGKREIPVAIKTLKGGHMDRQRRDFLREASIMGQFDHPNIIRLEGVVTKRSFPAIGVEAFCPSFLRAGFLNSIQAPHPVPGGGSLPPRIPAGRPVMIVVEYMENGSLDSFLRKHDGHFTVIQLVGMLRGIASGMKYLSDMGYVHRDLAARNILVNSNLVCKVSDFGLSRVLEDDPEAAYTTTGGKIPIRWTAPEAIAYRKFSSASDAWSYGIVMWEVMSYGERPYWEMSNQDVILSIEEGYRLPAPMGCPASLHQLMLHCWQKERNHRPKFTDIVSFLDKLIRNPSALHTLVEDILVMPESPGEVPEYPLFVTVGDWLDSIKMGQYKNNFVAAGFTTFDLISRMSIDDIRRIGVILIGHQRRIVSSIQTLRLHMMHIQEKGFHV
T12 sequence (Q00535 whole entry): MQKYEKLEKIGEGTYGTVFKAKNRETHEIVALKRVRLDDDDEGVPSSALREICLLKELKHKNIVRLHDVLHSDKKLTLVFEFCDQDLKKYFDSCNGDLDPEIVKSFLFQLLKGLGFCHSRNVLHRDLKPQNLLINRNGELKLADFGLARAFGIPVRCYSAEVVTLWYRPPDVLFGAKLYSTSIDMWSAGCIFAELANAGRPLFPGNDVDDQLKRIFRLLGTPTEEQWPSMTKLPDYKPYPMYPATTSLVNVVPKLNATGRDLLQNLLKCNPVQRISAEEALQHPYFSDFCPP
T34 sequence (P29323 19-1055): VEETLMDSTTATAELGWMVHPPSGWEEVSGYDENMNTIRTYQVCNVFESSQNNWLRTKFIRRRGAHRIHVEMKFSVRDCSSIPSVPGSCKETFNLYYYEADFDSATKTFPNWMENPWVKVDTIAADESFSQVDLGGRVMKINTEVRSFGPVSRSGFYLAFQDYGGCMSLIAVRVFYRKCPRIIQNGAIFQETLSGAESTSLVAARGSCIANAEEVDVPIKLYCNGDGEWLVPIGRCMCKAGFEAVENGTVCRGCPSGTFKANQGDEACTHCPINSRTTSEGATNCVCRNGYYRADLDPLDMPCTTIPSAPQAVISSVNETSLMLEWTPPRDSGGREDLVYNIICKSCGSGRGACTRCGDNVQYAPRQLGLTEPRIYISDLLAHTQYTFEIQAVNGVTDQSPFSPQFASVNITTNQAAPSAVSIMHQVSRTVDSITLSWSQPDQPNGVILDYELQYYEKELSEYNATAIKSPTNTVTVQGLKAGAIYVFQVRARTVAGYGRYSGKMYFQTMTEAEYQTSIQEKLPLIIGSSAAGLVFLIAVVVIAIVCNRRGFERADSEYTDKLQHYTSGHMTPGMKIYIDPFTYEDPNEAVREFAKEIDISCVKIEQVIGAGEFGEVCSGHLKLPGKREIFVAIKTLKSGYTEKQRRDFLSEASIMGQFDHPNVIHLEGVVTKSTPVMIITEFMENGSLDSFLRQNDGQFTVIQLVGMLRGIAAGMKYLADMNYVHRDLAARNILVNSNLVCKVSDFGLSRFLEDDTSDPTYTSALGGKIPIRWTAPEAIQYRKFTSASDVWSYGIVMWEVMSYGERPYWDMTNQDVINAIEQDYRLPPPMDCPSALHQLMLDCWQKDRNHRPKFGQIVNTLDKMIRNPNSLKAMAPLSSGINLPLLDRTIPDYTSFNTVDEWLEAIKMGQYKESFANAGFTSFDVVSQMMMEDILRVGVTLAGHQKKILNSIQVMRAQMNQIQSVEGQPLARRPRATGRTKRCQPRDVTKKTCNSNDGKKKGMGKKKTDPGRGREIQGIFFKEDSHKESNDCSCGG
T27 sequence (O14757 whole entry): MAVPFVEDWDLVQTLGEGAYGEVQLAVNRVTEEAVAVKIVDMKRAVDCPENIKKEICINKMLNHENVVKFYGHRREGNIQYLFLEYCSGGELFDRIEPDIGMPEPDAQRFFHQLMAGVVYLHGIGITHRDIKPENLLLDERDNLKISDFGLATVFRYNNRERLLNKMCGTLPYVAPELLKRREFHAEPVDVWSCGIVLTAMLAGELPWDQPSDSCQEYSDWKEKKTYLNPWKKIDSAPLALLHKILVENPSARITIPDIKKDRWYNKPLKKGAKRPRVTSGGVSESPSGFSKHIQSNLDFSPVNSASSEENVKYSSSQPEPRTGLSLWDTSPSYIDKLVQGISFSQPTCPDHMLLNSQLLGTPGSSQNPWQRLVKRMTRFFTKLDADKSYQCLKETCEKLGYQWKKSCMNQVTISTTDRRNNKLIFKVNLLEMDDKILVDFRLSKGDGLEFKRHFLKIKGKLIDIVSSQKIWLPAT
T18 sequence (P00533 with tags, fused parts or gaps DEL747-752/P753S limits assumed): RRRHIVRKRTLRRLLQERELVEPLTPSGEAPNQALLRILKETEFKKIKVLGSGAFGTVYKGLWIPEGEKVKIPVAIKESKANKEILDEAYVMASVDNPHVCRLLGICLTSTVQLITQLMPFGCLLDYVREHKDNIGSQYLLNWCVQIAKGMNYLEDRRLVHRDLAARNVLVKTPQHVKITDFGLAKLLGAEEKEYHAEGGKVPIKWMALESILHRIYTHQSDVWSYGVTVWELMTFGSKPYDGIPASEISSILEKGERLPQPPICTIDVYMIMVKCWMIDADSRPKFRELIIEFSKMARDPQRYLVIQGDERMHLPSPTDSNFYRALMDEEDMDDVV
T29 sequence (Q9UPZ9 whole entry): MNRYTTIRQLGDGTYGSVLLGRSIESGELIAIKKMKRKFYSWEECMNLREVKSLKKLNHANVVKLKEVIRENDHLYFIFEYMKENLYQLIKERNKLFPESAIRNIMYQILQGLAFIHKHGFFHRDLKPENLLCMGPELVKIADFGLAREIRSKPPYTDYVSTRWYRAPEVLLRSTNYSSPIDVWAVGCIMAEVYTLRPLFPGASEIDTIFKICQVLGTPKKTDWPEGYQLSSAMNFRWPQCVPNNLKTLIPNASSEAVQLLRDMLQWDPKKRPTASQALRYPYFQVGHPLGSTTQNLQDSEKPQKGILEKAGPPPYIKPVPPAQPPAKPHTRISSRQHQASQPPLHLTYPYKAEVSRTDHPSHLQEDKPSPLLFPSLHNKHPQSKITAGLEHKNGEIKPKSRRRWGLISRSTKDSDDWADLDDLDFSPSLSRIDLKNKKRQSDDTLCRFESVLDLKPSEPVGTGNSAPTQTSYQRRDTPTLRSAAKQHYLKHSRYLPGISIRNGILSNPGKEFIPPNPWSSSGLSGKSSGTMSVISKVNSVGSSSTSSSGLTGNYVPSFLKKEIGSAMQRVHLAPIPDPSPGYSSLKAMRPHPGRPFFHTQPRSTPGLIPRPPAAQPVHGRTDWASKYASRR

SMILES: COc1cc(/C=C2\N=C(N)NC2=O)ccc1O [Polyandrocarpamine A]
- Score (JNK3): 93
- Score [1]: 95
- Score (MUSK): 56
- Score (ADCK4): 98
- Score (LOK): 100
- Score (CDKL3): 100
- Score (LZK): 100
- Score (CDKL1): 100
- Score (INSR): 90
- Score (FLT3(D835Y)): 100
- Score (FGFR3(G697C)): 83
- Score (CDK5): 100
- Score (FER): 100
- Score [2]: 67
- Score (TXK): 100
- Score (ERK3): 82
- Score (CDKL5): 100
- Score [3]: 100
- Score (CDKL2): 100
- Score (EPHA6): 100
- Score (CDC2L5): 100
- Score (LATS1): 100
- Score (EPHA4): 83
- Score (CAMK1G): 100
- Score (TRKA): 95
- Score (CDK9): 88
- Score (CHEK1): 100
- Score (MAP3K4): 100
- Score (ICK): 100
- Score [4]: 100
- Score (DRAK1): 42
- Score (YES): 100
- Score (MAPKAPK5): 100
- Score (EPHB2): 79
- Score (CSNK1A1L): 100
- Score (TSSK1B): 100
- Score (WEE1): 100
